Source: ChEMBL document CHEMBL1201862, “PubChem BioAssay data set” (2004)
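Step 1: Grow cells in 96-well plates. Step 2: Expose to compound for 48 hours at 5 concentrations. Step 3: Interpolate endpoints linearly; if unreached, use highest concentration. GI50: concentration for 50% inhibition of growth.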 Activity calls are given as the source filed them. Cut-off read from the data, not from the text of the source: active = GI50 up to about 1.1 µM and inactive = higher.

Tests used:
Experiment in all cases: NCI anticancer screen, dose series, 48 h
A549 = test system: A549
ACHN = test system: ACHN
CCRF-CEM = test system: CCRF-CEM
HCT-116 = test system: HCT-116
HOP-92 = test system: HOP-92
Hs-578T = test system: Hs-578T
K562 = test system: K562
NCI-H23 = test system: NCI-H23
NCI-H460 = test system: NCI-H460
OVCAR-3 = test system: OVCAR-3
OVCAR-8 = test system: OVCAR-8
SF-539 = test system: SF-539
SK-MEL-5 = test system: SK-MEL-5
SK-OV-3 = test system: SK-OV-3
SN12C = test system: SN12C
SNB-75 = test system: SNB-75
SR = test system: SR
T47D = test system: T47D
KM12 = test system: KM12
UACC-257 = test system: UACC-257

Measured: GI50

COC(=O)/C(=C\c1cn(C(C)=O)c2ccccc12)P(=O)(OC)OC
inactive: A549 16.4 µM | ACHN 11.8 µM | CCRF-CEM 14.6 µM | HCT-116 13.9 µM | HOP-92 16.6 µM | Hs-578T 27 µM | K562 25.1 µM | NCI-H23 14.8 µM | NCI-H460 15 µM | OVCAR-3 17.1 µM | OVCAR-8 22.5 µM | SF-539 16 µM | SK-MEL-5 13.4 µM | SK-OV-3 19 µM | SN12C 14.8 µM | SNB-75 12 µM | SR > 100 µM | T47D 13.7 µM

CC1NC(=O)c2c(-c3ccccc3)nn(-c3ccccc3)c2NC1=O (configuration not stated)
inactive: A549 > 100 µM | ACHN > 100 µM | CCRF-CEM > 100 µM | HCT-116 > 100 µM | HOP-92 > 100 µM | Hs-578T > 100 µM | K562 > 100 µM | KM12 > 100 µM | NCI-H23 > 100 µM | NCI-H460 > 100 µM | OVCAR-3 37.4 µM | OVCAR-8 > 100 µM | SK-MEL-5 > 100 µM | SK-OV-3 > 100 µM | SN12C > 100 µM | SNB-75 > 100 µM | SR > 100 µM | T47D > 100 µM | UACC-257 > 100 µM

O=C(N=C1N(c2ccccc2)C(=O)C(=O)N1c1ccccc1)c1ccccc1
inactive: A549 5.48 µM | ACHN 3.78 µM | CCRF-CEM 24.8 µM | HCT-116 3.99 µM | HOP-92 2.99 µM | Hs-578T 4.65 µM | K562 29.2 µM | KM12 17.3 µM | NCI-H23 13.6 µM | NCI-H460 11.7 µM | OVCAR-8 9.35 µM | SF-539 12.6 µM | SK-MEL-5 14.9 µM | SK-OV-3 4.68 µM | SN12C 10.6 µM | SNB-75 11.3 µM | SR 7.46 µM | T47D 15.6 µM | UACC-257 29.9 µM

Nc1ccccc1-c1noc(=O)[nH]1
inactive: A549 > 100 µM | ACHN > 100 µM | CCRF-CEM > 100 µM | HCT-116 > 100 µM | HOP-92 > 100 µM | Hs-578T > 100 µM | K562 > 100 µM | KM12 > 100 µM | NCI-H23 > 100 µM | OVCAR-3 > 100 µM | OVCAR-8 > 100 µM | SF-539 > 100 µM | SK-MEL-5 > 100 µM | SK-OV-3 > 100 µM | SN12C > 100 µM | SNB-75 > 100 µM | SR > 100 µM | T47D > 100 µM | UACC-257 > 100 µM

CC(=O)OC1c2ccccc2CC2(OC(C)=O)c3ccccc3C12 (configuration not stated)
inactive: A549 > 100 µM | ACHN > 100 µM | CCRF-CEM > 100 µM | HCT-116 > 100 µM | HOP-92 91 µM | Hs-578T > 100 µM | K562 > 100 µM | KM12 > 100 µM | NCI-H23 > 100 µM | NCI-H460 > 100 µM | OVCAR-3 > 100 µM | OVCAR-8 > 100 µM | SF-539 > 100 µM | SK-OV-3 > 100 µM | SN12C > 100 µM | SNB-75 > 100 µM | SR > 100 µM | T47D > 100 µM | UACC-257 > 100 µM

N#CCC1COc2ccccc2O1 (configuration not stated)
inactive: A549 > 10 µM | ACHN > 10 µM | CCRF-CEM > 10 µM | HCT-116 > 10 µM | HOP-92 > 10 µM | Hs-578T > 10 µM | K562 > 10 µM | KM12 > 10 µM | NCI-H23 > 10 µM | OVCAR-8 > 10 µM | SF-539 > 10 µM | SK-MEL-5 > 10 µM | SK-OV-3 > 10 µM | SN12C > 10 µM | SNB-75 > 10 µM | SR > 10 µM | T47D > 10 µM | UACC-257 > 10 µM
